From paper PMC7026080, “Phenotypic high-throughput screening platform identifies novel chemotypes for necroptosis inhibition” (Cell Death Discovery, 2020)

Assays:
[1] = test system: L929 cells; test: Cytotoxicity in L929 cells without TNF-α, 24 h, LDH release; format: cell-based, murine; conditions: Mus musculus, absence of TNF-α, toxicity, screening step 7, read-out: IC50 L929 (in vitro)
Description: The ability of compounds to interfere with specific steps of the necroptosis pathway, as well as inherent cytotoxicity and long-term necroptosis inhibitory effects were evaluated using in vitro necroptosis models (Fig. S1). Firstly, the 110 compounds were tested for their ability to modulate TNF-α-induced MLKL phosphorylation, a key necroptotic effector downstream of RIPK3[13]. […] Membrane integrity was evaluated by both AK and LDH release to exclude potential false positives.
Whole cell extracts were analysed by immunoblotting. […] Data represent mean values ± SEM of three independent experiments normalized to untreated control. Cell viability was assessed using a colorimetric-based readout for LDH release.
Whole cell extracts were analysed by immunoblotting. Data shown are representative blots and quantification of p-MLKL/MLKL ratio from one single experiment, in fold-change from control. […] Data represent mean values ± SEM of three independent experiments normalized to untreated control. Cell viability was assessed using a colorimetric-based readout for LDH release. c In vitro screening results for seven selected compounds at different stages of the HTS cascade. TEXT PRINTED IN THE PICTURE: (C) Nec-1: EC50 [μM] L929 + TNF-α (in vitro): 1.25 (Screening Step: 1; Time Point: 8 h); EC50 [μM] L929 + TNF-α (in vitro): 1.13 (Screening Step: 7; Time Point: 24 h); EC50 [μM] […]

[2] = Caco-2 cell-based permeability assay; format: in vitro ADME; conditions: human

| SMILES | IC50 [1] [µM] | efflux ratio [2] | Papp A→B [2] [×10⁻⁶ cm/s] | Papp B→A [2] [×10⁻⁶ cm/s] |
| --- | --- | --- | --- | --- |
| CN1C(=O)C(Cc2c[nH]c3ccccc23)NC1=S (stereo not shown) [Nec-1, necrostatin-1] | > 100 | 0.36 | 38 | 14 |
| O=C(c1cnn(Cc2ccccc2)c1)N1CCOc2ccccc2C1 [SN-6109] | > 100 | – | 31 | 16 |
